The record followed here is US9266871B2, “Trifluoromethyl-substituted fused pyrimidines and their use” (BAYER PHARMA AKTIENGESELLSCHAFT, priority 2013, dated 2016).

As usually defined, the IC50 is the concentration that gives 50% inhibition.

The target in one assay is T1, bovine PDE 6 (Bos taurus, UniProt P11541+P23439).
T1 construct: from tissue; host or cells: bovine retina, photoreceptor outer segments (ROS)
T1 sequence (P11541 2-856 limits assumed): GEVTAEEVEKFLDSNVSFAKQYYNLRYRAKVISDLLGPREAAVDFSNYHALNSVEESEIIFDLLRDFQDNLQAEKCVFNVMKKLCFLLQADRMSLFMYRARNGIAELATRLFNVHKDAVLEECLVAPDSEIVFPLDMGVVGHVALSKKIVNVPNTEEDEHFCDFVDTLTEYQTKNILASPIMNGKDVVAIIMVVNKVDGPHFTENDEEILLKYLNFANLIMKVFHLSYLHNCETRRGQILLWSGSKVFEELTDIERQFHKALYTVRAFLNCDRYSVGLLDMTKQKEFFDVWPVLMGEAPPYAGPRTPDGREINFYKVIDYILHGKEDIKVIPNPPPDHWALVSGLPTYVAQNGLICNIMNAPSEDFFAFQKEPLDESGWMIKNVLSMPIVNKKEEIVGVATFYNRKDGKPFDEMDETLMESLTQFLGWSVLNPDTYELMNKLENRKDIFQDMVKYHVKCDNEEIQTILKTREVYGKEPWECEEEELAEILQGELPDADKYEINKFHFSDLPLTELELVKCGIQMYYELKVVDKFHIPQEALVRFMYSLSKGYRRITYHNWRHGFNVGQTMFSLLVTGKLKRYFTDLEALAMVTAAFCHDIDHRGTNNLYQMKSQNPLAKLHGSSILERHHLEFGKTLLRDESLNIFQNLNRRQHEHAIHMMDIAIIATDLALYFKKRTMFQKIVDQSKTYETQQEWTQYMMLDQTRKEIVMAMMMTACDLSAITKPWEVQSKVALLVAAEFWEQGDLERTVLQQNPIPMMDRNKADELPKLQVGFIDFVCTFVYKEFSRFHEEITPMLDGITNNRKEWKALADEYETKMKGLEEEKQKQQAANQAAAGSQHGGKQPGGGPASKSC
T1 sequence (P23439 2-850 limits assumed): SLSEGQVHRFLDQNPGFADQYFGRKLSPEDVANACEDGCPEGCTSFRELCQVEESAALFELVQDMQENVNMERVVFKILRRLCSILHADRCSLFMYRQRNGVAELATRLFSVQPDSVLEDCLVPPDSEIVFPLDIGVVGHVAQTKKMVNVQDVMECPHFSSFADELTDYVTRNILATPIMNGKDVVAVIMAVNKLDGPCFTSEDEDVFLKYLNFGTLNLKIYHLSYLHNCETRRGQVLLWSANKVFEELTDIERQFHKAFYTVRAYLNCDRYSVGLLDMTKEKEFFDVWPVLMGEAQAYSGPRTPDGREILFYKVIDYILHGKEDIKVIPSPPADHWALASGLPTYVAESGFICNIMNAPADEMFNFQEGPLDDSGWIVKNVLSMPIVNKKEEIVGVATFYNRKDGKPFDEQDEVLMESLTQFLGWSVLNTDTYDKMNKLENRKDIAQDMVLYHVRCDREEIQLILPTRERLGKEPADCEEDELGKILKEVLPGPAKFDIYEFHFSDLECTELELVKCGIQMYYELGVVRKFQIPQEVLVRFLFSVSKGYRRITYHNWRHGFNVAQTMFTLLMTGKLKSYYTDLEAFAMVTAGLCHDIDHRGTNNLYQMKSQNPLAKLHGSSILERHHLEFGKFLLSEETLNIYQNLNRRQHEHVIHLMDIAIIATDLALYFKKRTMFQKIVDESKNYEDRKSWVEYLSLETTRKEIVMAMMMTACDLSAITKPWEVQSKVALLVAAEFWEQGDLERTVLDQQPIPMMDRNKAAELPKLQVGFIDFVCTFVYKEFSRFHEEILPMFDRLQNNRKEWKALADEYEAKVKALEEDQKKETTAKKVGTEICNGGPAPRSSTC
Put plainly: Inhibition of bovine phosphodiesterase 6 (PDE 6), 3H-cGMP SPA. The following applies: bovine PDE 6 inhibition. It counts as biochemical. Here is the method:
B-6. Inhibition of Bovine Phosphodiesterase 6 (PDE 6)
PDE 6 is purified from external photoreceptor segments of bovine retina (ROS), activated by mild trypsination and purified further by ion exchange chromatography using a Mono Q column. Fractions having PDE 6 activity are combined (PDE 6 preparation) and stored at −80° (I. Saenz de Tejada et al., International Journal of Impotence Research 2001, 13, 282-290). The in vitro effect of test substances on bovine PDE 6 is determined using the commercially available 3H-cGMP Scintillation Proximity Assay (SPA) from Perkin Elmer. The reaction ([…], 37° C.) comprises serial dilution series of the test substances in DMSO and PDE 6 preparation (typical dilution 1:100,000), [8^−3H]guanosine 3′,5′-cyclic phosphate (0.25 μCi/mL; Perkin Elmer) and unlabelled cGMP (10 μM) in assay buffer (50 mM Tris/HCl pH 7.5; 140 mM NaCl; 8.3 mM MgCl2; 1.7 mM EDTA; 0.02% BSA). IC50 values are determined by plotting the substance concentration against the percent PDE 6 inhibition determined (Wunder et al. Molecular Pharmacology 2005, 68, 1775-1781).

For a further assay, the system named is aorta rings. Put plainly: Vasorelaxant effect in vitro (phenylephrine-contracted aorta rings). The following applies: Oryctolagus cuniculus; relaxation of phenylephrine-induced contraction, rabbit aorta rings. Here is the method:
B-1. Vasorelaxant Effect In Vitro
Rabbits are stunned by a blow to the neck and exsanguinated. The aorta is removed, freed from adhering tissue and divided into rings of a width of 1.5 mm. The rings are placed individually under an initial tension in 5 ml organ baths with Krebs-Henseleit solution which is at 37° C., is gassed with carbogen and has the following composition (in each case mM): sodium chloride: 119; potassium chloride: 4.8; calcium chloride dihydrate: 1; magnesium sulphate heptahydrate: 1.4; potassium dihydrogenphosphate: 1.2; sodium bicarbonate: 25; glucose: 10. The contractile force is determined with Statham UC2 cells, amplified and digitalized using A/D transducers (DAS-1802 HC, Keithley Instruments Munich), and recorded in parallel on linear recorders. To produce a contraction, phenylephrine is added to the bath cumulatively in increasing concentration. After several control cycles, the substance to be investigated is added in each further run in increasing dosage in each case, and the height of the contraction achieved is compared with the height of the contraction reached in the last preceding run. This is used to calculate the concentration needed to reduce the magnitude of the control value by 50% (IC50 value). The standard administration volume is 5 μl; the DMSO content in the bath solution corresponds to 0.1%.

Turning to `C[C@@]1(C(F)(F)F)C(=O)Nc2nc(-c3nn(Cc4ncccc4F)c4ncc(F)cc34)nc(NCCC(F)(F)F)c21` (single isomer, unassigned) [Example 1-1], the IC50 against bovine PDE 6 is 220 nM; in the assay with aorta rings, 265 nM.

Consider `C[C@]1(C(F)(F)F)C(=O)Nc2nc(-c3nn(Cc4ncccc4F)c4ncc(F)cc34)nc(NCCC(F)(F)F)c21` (single isomer, unassigned) [Example 1-2], for which the IC50 against bovine PDE 6 was 1400 nM; with aorta rings it was 237 nM.
